From the NIST ThermoML archive (doi:10.1016/j.jct.2014.09.020)
Numbers after ± are expanded uncertainties.

Assay: xn = mol fraction of the nth substance listed
Conditions: Liquid; for speed of sound: Frequency=4 MHz, Single path-length method; for mass density: Vibrating tube method

c1ccc2c(c1)CCCC2 [1,2,3,4-tetrahydronaphthalene] + CCCCCCCCCCCCCCCC
Conditions	mass density, 100 kPa [kg/m3]	speed of sound, 100 kPa [m/s]	speed of sound, 5000 kPa [m/s]	speed of sound, 10000 kPa [m/s]	speed of sound, 15000 kPa [m/s]	speed of sound, 20000 kPa [m/s]	speed of sound, 25000 kPa [m/s]
313.15 K, x2 = 0	952.93 ± 1.2	1413 ± 2	1434 ± 3	1455 ± 3	1475 ± 3	1495 ± 3	1513 ± 3
313.15 K, x2 = 0.2491	871.85 ± 1.1	1346 ± 2	1371 ± 2	1395 ± 2	1418 ± 2	1441 ± 2	1461 ± 3
313.15 K, x2 = 0.4995	820.52 ± 1.1	1315 ± 2	1342 ± 2	1367 ± 2	1391 ± 2	1414 ± 2	1438 ± 2
313.15 K, x2 = 0.75	785.3 ± 1	1298 ± 2	1326 ± 2	1352 ± 2	1378 ± 2	1403 ± 2	1427 ± 2
323.15 K, x2 = 0	944.99 ± 1.2	1374 ± 2	1397 ± 3	1419 ± 3	1439 ± 3	1459 ± 3	1480 ± 3
323.15 K, x2 = 0.2491	864.36 ± 1.1	1311 ± 2	1337 ± 2	1361 ± 2	1385 ± 2	1408 ± 2	1429 ± 2
323.15 K, x2 = 0.4995	813.31 ± 1.1	1278 ± 2	1306 ± 2	1333 ± 2	1358 ± 2	1383 ± 2	1406 ± 2
323.15 K, x2 = 0.75	778.26 ± 1	1262 ± 2	1291 ± 2	1319 ± 2	1345 ± 2	1369 ± 2	1393 ± 2
333.15 K, x2 = 0	937.04 ± 1.2	1335 ± 2	1359 ± 3	1383 ± 3	1402 ± 3	1425 ± 3	1445 ± 3
333.15 K, x2 = 0.2491	856.85 ± 1.1	1274 ± 2	1300 ± 2	1326 ± 2	1350 ± 2	1374 ± 2	1396 ± 2
333.15 K, x2 = 0.4995	806.07 ± 1.1	1242 ± 2	1271 ± 2	1298 ± 2	1325 ± 2	1350 ± 2	1374 ± 2
333.15 K, x2 = 0.75	771.21 ± 1	1224 ± 2	1253 ± 2	1282 ± 2	1309 ± 2	1335 ± 2	1361 ± 2
